Assay results: patent US12377069B2, “Compounds, compositions, methods of using, and methods for preparing compounds” (UNIVERSITY OF LOUISVILLE RESEARCH FOUNDATION, INC., priority 2018, dated 2025)

Legend:
HT29 cells = test: AhR/Cyp1A1 siRNA knockdown and Cyp1A1 CRISPR/Cas9 deletion; type: cell-based, human; details: 24 h; for Cldn4 or NQO1 in Cyp1A1 deleted cells: CRISPR/Cas9, 50 μM; for Cldn4 induction in AhR or Cyp1A1 knockdown cells: siRNA, 50 μM
Procedure: Small interfering RNA (siRNA) mediated knockdown experiment: The AhR siRNA (SR300136) and Cyp1A1 siRNA (SR301093) was purchased from Origene. For knockdown experiments, HT29 cells (0.5×10^6 cells/well) were plated in 6 well plate and grown for 24 hr. The AhR, Cyp1A1 and control-siRNA was transfected into HT29 cells using Lipofectamine® RNAiMAX reagent (ThermoFisher Scientific) as per instruction given. After 24 hr of transfections, cell were induced with vehicle (0.01% DMSO), UroA (50 μM) and UAS03 (50 μM) for 24 hr. After treatment with inducers, cells were lysed using RIPA buffer and total protein was used to analyse the expression of AhR, Cyp1A1 and cldn4 by western blot.
Cyp1A1 deletion by CRISPR/Cas9 method: HT29 cells (1.5×10^5) were plated in 6-well in antibiotic free standard growth medium 24 h prior to transfection. At 60% confluency cells, cell were co-transfected with 2 μg each of CRISPR/Cas9 KO Plasmid (sc-400511-KO-2; Santa cruz) and HDR Plasmid (sc-400511-HDR-2; Santa cruz) using UltraCruz® Transfection Reagent (sc-395739; Santa Cruz). Medium was replaced with selective medium (containing 4 μg/mL puromycin) 96 hr post transfection. Transfection was confirmed with fluorescence microscopy and western blot (CYP1A1). The double positive cells for GFP and RFP were sorted using MoFlo XDP sorting instrument (Beckman Coulter). The deletion of Cyp1A1 in these sorted was confirmed by Western blots. These cells were then plated in 6-well plate for in standard medium for evaluating the effect of UroA/UAS03 on Cldn4 expression. After 24 hr of UroA/UAS03 treatment cells were harvested for protein and Cldn4 expression was investigated along with normal HT29 cells.

NF-κB = NF-κB EMSA assay; type: cell-based, mouse; details: LPS 50 ng/mL, 6 hr
Procedure: NF-κB EMSA assay: RAW 264.7 cells or BMDM were plated in 100 mm dishes (1×10^6) in DMEM supplemented with 10% fetal bovine serum (FBS), 100 U/ml penicillin, and […]. Cells were allowed to grow for 24 hr and after incubation, cells were treated with LPS (50 ng/mL) with and without UroA (50 μM) and UAS03 (50 μM) for 6 hr. After treatments, culture medium was removed and washed with PBS. Cells were scraped and pelleted down in PBS. Supernatant was discarded and pellet was used for isolation of nuclear and cytosolic protein using NE-PER Nuclear and Cytoplasmic kit (Thermo Scientific; Cat #78833). Later nuclear protein (2 μg) was used for EMSA using Non-Radioactive EMSA Kits with IR Fluo-Probes for Nuclear factor kappa B p65 (Viagene Biotech Inc Cat #IRTF282 60).

Caco2 cells = test: LPS depletion of Ocln in colon epithelial cells; type: cell-based, human; details: 10, 25, 50 μM, 24 h
Procedure: FIG. 12: UroA/UAS03 protect from LPS or alcohol induced depletion of Ocln and protected permeability. (A) Caco 2 cells were treated with LPS for 24 h at indicated doses and Western blots performed to determine expression of Ocln. (B) Caco2 cells were treated with LPS in combination with UroA or UAS03 (10, 25, 50 μM) for 24 h and determined Ocln expression.
UroA/UAS03 upregulate TJ proteins and protect against LPS induced damage: TJ proteins such as Cldn4, ZO-1, Ocln play a role in maintaining the gut epithelial integrity and protect the gut from external insults such as LPS. We investigated UroA/UAS03 effects on TJ protein regulation in colon epithelial cells, HT-29 and Caco2 cells. […] ALD is associated with disrupted TJs, increased permeability, inflammation and endotoxemia. Ocln is a tight junction protein expressed in intestinal epithelium and plays a role in maintenance of gut barrier function. We examined whether UroA/UAS03 can protect LPS (endotoxin) depletion of Ocln in colon epithelial cells. […] For this purpose, we have utilized Caco-2 monolayer cells on transwell membranes and performed transepithelial electrical resistance (TEER) and FITC-dextran permeability assays.

[1] = test system: 5FU resistant (5FUR) colon cancer cell lines; test: Cell viability of 5FU resistant colon cancer cell lines; type: cell-based; details: combination of 5FU
5FUR HCT116 cells = test: EMT markers in colon cancer cells (Western blot); type: cell-based; details: for EMT markers ZO-1, E-Cadherin, Snail, β-catenin: 5FUR HCT116, 72 h, in the presence of 5FU
Procedure: FIG. 41: Western blot analysis of EMT markers in 5FUR HCT116 cells in treated (72 h) with 5FU in the presence or absence of UroA/UAS03.
UroA/UAS03 treatment reduce epithelial-mesenchymal transitions (EMT) signature in 5FU resistant (5FU R) colon cancer cells: We examined EMT markers in 5FU sensitive (parent) and 5FU resistant (5FUR) HCT116 colon cancer cell lines. […] The reciprocal expression of these molecules are hallmarks of EMT signature. Next, we examined whether treatment with UroA/UAS03 can reverse these patterns in 5FUR cells. […] One of the mechanisms by which cancer cells acquire chemoresistant phenotype is by the induction of drug transporters such as Multidrug resistance-associated protein 2 (MRP2), ATP-binding cassette (ABC) drug efflux transporter proteins, BCRP and P-gycoprotein (P-gp).

[2] = test system: colon cancer cell line (SW480); test: Proliferation assay with 5FU; details: for effect on cell proliferation, compound alone: without 5FU

Oc1ccc2c(c1)COc1cc(O)ccc1-2 [UAS03, 6H-benzo[c]chromene-3,8-diol]
Cldn4 or NQO1 in Cyp1A1 deleted cells (HT29 cells): did not appear to upregulate
Cldn4 induction in AhR or Cyp1A1 knockdown cells (HT29 cells): does not appear to induce Cldn4
LPS-induced NF-κB activation in macrophages (NF-κB): reduced the NF-κB activation
LPS depletion of Ocln (Caco2 cells): protected from depletion of Ocln
cell viability of 5FUR colon cancer cell lines, combination with 5FU [1]: reduced cell viability
EMT markers ZO-1, E-Cadherin, Snail, β-catenin (5FUR HCT116 cells): upregulated ZO-1, E-Cadherin, and down regulated Snail and β-catenin
fold less 5FU drug concentration to reach the similar effect ([2]; combination with 5FU): more than 32 fold
increase in the inhibition of cell proliferation ([2]; with 3.12 μM of 5FU): approximately 6 fold
cell viability in combination with 5FU ([2]; with 5FU): 40%
effect on cell proliferation, compound alone [2]: minimal effect

O=c1oc2cc(O)ccc2c2ccc(O)cc12 [UroA, 3,8-dihydroxy-6H-dibenzo[b,d]pyran-6-one]
Cldn4 or NQO1 in Cyp1A1 deleted cells (HT29 cells): did not appear to upregulate
Cldn4 induction in AhR or Cyp1A1 knockdown cells (HT29 cells): does not appear to induce Cldn4
LPS-induced NF-κB activation in macrophages (NF-κB): reduced the NF-κB activation
LPS depletion of Ocln (Caco2 cells): protected from depletion of Ocln
cell viability of 5FUR colon cancer cell lines, combination with 5FU [1]: reduced cell viability
EMT markers ZO-1, E-Cadherin, Snail, β-catenin (5FUR HCT116 cells): upregulated ZO-1, E-Cadherin, and down regulated Snail and β-catenin
expression of E-cadherin (5FUR HCT116 cells; colon cancer cell lines): enhanced the expression of E-cadherin
effect on cell proliferation, compound alone [2]: minimal effect
